One assay has as its system L-aminoacylases.
Test: not given
To be noted: U.S. Pat. No. 4,745,067; cited from earlier work.
T1 sequence (P0A6K3 whole entry): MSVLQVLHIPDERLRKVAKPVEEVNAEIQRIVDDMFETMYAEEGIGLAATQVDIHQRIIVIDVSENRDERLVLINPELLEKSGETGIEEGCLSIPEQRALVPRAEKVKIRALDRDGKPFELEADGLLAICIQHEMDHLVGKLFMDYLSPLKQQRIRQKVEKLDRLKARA
In the case of `CSCC[C@H](NC=O)C(=O)O` [N-formyl-L-methionine], the “activity of L-aminoacylases towards the substrate” value is “low”.

In the next assay the test system is known peptide deformylases.
Test: not given
To be noted: Rajagopalan et al., Biochemistry 1997; cited from earlier work.
As for `CSCC[C@H](NC=O)C(=O)O` [N-formylmethionine], the “deformylase activity of known peptide deformylases towards the substrate” value is listed as “no or little activity”.

Another assay concerns the target T1, PDF(Fe) (peptide deformylase) (Escherichia coli, UniProt P0A6K3).
T1 construct: made in house; host or cells: overproducing E. coli cells
The assay is described as follows: Enantioselective enzymatic deformylation of N-formyl compounds by PDF(Fe), HPLC analysis. The class given is biochemical, E. coli. To be noted: Method A: 100 mM MOPS/NaOH, 2 M Li2SO4, pH 7.2, 37° C. How it is done: PDF(Fe) was isolated from overproducing E. coli cells grown at 30° C. in 1.6 l TB medium for 14–16 h. About 13 g (wet weight) cell paste were suspended in 26 ml buffer (20 mM Hepes/KOH, 100 mM KF, pH 7.7 supplemented with 10 μg/ml catalase from bovine liver (Boehringer Mannheim) and 1 mM AEBSF, disintegrated by sonication (Branson B12, 20 min) at 0° C. and centrifuged at 200.000 g for 1 h. The clear supernatant (1.3 g of protein; according to biurete reaction) was mixed with 1.3 ml 10% (w/v) Polymin G-35 (BASF) adjusted to pH 7.7 and centrifuged at 40.000 g for 10 min. The supernatant was applied to a 20 ml Met-Lys-Sepharose column that had been equilibrated with 20 mM Hepes/KOH, 100 mM KF, 0.2 mM TCEP, pH 7.7. After washing with 120 ml of 20 mM Hepes/KOH, 100 mM KF, 0.2 mM TCEP, pH 7.7, PDF(Fe) was eluted with 150 ml 20 mM Hepes/KOH, 100 mM KCl, 0.2 mM TCEP, pH 7.7. The protein containing fractions were concentrated by ultrafiltration using an Amicon PM10 membrane (yield: 140 mg protein, 1400 U/mg; determined according to Groche et al.). After adjustment of the TCEP concentration to 1 mM and protein concentration to 40 mg/ml, the PDF(Fe) stock solution (40 mg/ml=2 mM) was stored frozen at −60° C. After thawing, the PDF(Fe) stock solution could be used directly in the deformylation experiments described below. If however solutions with lower PDF(Fe) concentrations were required for these deformylation experiments, the PDF stock solution was diluted further in 20 mM Hepes/KOH, pH 7.7, 100 mM KCl, 1 mg/ml bovine serum albumin, 10 μg/ml catalase solution.
In all cases HPLC conditions had to be developed in which the two deformylated isomers were separated from each other and from the formylated isomers. To this end two different techniques were applied that is method 1 and method 2, as described below.
From the quantities of deformylated isomers in the samples after various reaction times, both the initial deformylation rate constant (kf and ks in M^−1s^−1) could be calculated for both enantiomers, as well as the respective ee values. The enantioselectivity of the enzyme (E value) was calculated by taking the ratio of kf/ks and is given for all Examples in table 1, as well as the maximum ee value (eemax) observed during the experiments.
A Crownpak CR(+) column (4×150 mm) was used. Samples (5 μl) withdrawn from the deformylation mixture were mixed with 95 μl aqueous HClO4 (10 mM) to inactivate PDF(Fe). Following a brief centrifugation, 20 μl of the supernatant were applied to the Crownpak CR(+) column. For specific chromatographic conditions and retention times see table 2.
Method 2 (Precolumn derivatization with o-phthaldialdehyde (OPA) and N-acetyl-L-cysteine (NAC). Samples (25 μl) withdrawn from the deformylation mixture were mixed with 25 μl aqueous HClO4 (100 mM) to inactivate PDF(Fe). Following a brief centrifugation, 40 μl of the supernatant were added to 80 μl 1 M aqueous H3BO3/NaOH pH 9.4, subsequently 20 μl OPA reagent (consisting of OPA in H2O/CH3OH 1:1 v/v with a concentration as indicated in table 3) and 20 μl NAC reagent (consisting of NAC in H2O/CH3OH 1:1 v/v with a concentration as indicated in table 3) was added. After the time indicated in table 3 derivatization was terminated by addition of 80 μl (250 mM) aqueous H3PO4, and 20 μl of the solution were instantaneously applied to a Nucleosil 120-5 C18 (250×4 mm) column. Temperature was always ambient and detection was spectrophotometric using a wavelength of 257 nm and/or 340 nm. The used eluent was a mixture of aqueous 0.05 M H3PO4 brought at pH 7.0 with 1 M NaOH, and a percentage of acetonitrile as indicated in table 3. For derivatization of valine aminonitrile borate buffer was adjusted to pH 11 and addition of NAC reagent was done 10 min after OPA reagent had been added. Concentration of H3PO4 used for termination was 500 mM. Derivatization and separation conditions as well as the observed retention times for the deformylated compounds analyzed are compiled in table 3. […]
On to `O=CN1CCC[C@H]1C(=O)O` [Comparative Experiment B, N-formyl-proline, reference compound], for which the “kf (rate of deformylation of the most rapidly deformylated enantiomer)” value is <0,004 M^−1s^−1 and the “ks (rate of deformylation of the least rapidly deformylated enantiomer)” value was under 0.004 M⁻¹ s⁻¹.
Take `O=CNC(CO)c1ccccc1` (stereo not drawn) [Example 6, N-formyl-phenylglycinol]: the “E (enantioselectivity, kf/ks)” value is recorded as 18,5; the “eemax (maximum ee value observed)” value is 93,3%; the “kf (rate of deformylation of the most rapidly deformylated enantiomer)” value is 6,3 M^−1s^−1; the “ks (rate of deformylation of the least rapidly deformylated enantiomer)” value was 0.34 M⁻¹ s⁻¹.
Turning to `C[C@@H](CO)NC=O` [Example 8, N-formyl-alaninol], the “E (enantioselectivity, kf/ks)” value amounted to 12; the “eemax (maximum ee value observed)” value is listed as 85,6%; the “kf (rate of deformylation of the most rapidly deformylated enantiomer)” value is 0,22 M^−1s^−1; the “ks (rate of deformylation of the least rapidly deformylated enantiomer)” value was 0.018 M⁻¹ s⁻¹.
The matching figures for `CC(C)C(C#N)NC=O` (stereo not drawn) [Example 10, N-formyl-valine aminonitrile]: 47,9, 95,5%, 29,7 M^−1s^−1 and 0.62 M⁻¹ s⁻¹.
Taken in the same sequence, the figures for `CC(NC=O)c1cccc2ccccc12` (stereo not drawn) [Example 12, N-formyl-1-(1-naphthyl)-ethylamine] were 15, 90%, 0,45 M^−1s^−1 and 0.03 M⁻¹ s⁻¹.
Take “N-acetyl-phenylglycine amide [Comparative Experiment A, reference compound]”: the “kf (rate of deformylation of the most rapidly deformylated enantiomer)” value is given as <0,001 M^−1s^−1 and the “ks (rate of deformylation of the least rapidly deformylated enantiomer)” value was under 0.001 M⁻¹ s⁻¹.

Still in this assay, the particulars now being: Method B: absence of Li2SO4, 100 mM MOPS/NaOH, 250 mM NaCl, 0.1 mg/ml catalase, pH 7.2, 37° C.
For `O=CNC(C(=O)O)c1ccccc1` (stereo not drawn) [Example 1, N-formyl-phenylglycine], the “E (enantioselectivity, kf/ks)” value is given as 2255; the “eemax (maximum ee value observed)” value is recorded as 99,6%; the “kf (rate of deformylation of the most rapidly deformylated enantiomer)” value is listed as 10,6 M^−1s^−1; the “ks (rate of deformylation of the least rapidly deformylated enantiomer)” value is 0.0047 M⁻¹ s⁻¹.
In the case of `O=CNC(CC(=O)O)c1ccccc1` (stereo not drawn) [Example 2, N-formyl-3-amino-3-phenyl-propionic acid], the “E (enantioselectivity, kf/ks)” value was over 1775; the “eemax (maximum ee value observed)” value was 100%; the “kf (rate of deformylation of the most rapidly deformylated enantiomer)” value is on record as 7,1 M^−1s^−1; the “ks (rate of deformylation of the least rapidly deformylated enantiomer)” value is under 0.004 M⁻¹ s⁻¹.
Taken in the same sequence, the figures for `O=CNC(CO)c1ccccc1` (stereo not drawn) [Example 6, N-formyl-phenylglycinol] were 23,8, 90,5%, 0,69 M^−1s^−1 and 0.029 M⁻¹ s⁻¹.
The matching figures for `COc1cccc(CC(C#N)NC=O)c1` (stereo not drawn) [Example 11, N-formyl-m-methoxy-phenylalanine aminonitrile]: 685, 99,0%, 1370 M⁻¹ s⁻¹ and 2 M⁻¹ s⁻¹.

Staying with this assay, now noted: Method C: absence of Li2SO4, 100 mM MES/NaOH, pH 6.2, 37° C.
For `N#CC(Cc1ccccc1)NC=O` (stereo not drawn) [Example 9, N-formyl-phenylalanine aminonitrile], the “E (enantioselectivity, kf/ks)” value is listed as 880; the “eemax (maximum ee value observed)” value was 98,8%; the “kf (rate of deformylation of the most rapidly deformylated enantiomer)” value turned out to be 880 M⁻¹ s⁻¹; the “ks (rate of deformylation of the least rapidly deformylated enantiomer)” value stood at 1 M⁻¹ s⁻¹.
